Assay results taken from PubChem BioAssay AID1259411 (Chemical Carcinogenesis Research Information System (CCRIS), 2018).
Calls of active or inactive are those of the source. The rule behind the calls is not given here.

Tested on: rodent carcinogenicity bioassays, tumor incidence
Assay: CCRIS carcinogenicity studies
Procedure, shortened: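 NCI-built, expert-reviewed records of carcinogenicity and related test outcomes (mutagenicity, tumor promotion/inhibition) compiled from published and report sources, historical span 1985-2011, not updated.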

Q: What does the source list for `O=C(O)c1nn(Cc2ccc(Cl)cc2Cl)c2ccccc12`?
A: carcinogen call (Species: RAT, Strain/Sex: SPRAGUE-DAWLEY/FEMALE, Route: ORAL, Dose: 0, 20, 60, 180 MG/KG/D IN DIET FOR 2 YR (STUDY DURATION: 2 YR), Dose: 0, 20, 60, 180 MG/KG/D IN DIET FOR 2 YR (STUDY DURATION: 2 YR)): inactive; negative; carcinogen call (Species: RAT, Strain/Sex: SPRAGUE-DAWLEY/MALE, Route: ORAL, Dose: 0, 20, 60, 180 MG/KG/D IN DIET FOR 2 YR (STUDY DURATION: 2 YR), Dose: 0, 20, 60, 180 MG/KG/D IN DIET FOR 2 YR (STUDY DURATION: 2 YR)): inactive; negative

Q: `O=[N+]([O-])c1ccc2ccc3c([N+](=O)[O-])ccc4ccc1c2c43` was tested. Which carcinogen call (Species: HAMSTER, Strain/Sex: SYRIAN/FEMALE, Route: INTRATRACHEAL, Dose: 0, 0.5 MG IN 0.2 ML OF SALINE 1/WK FOR 26 WK (STUDY DURATION: 48 WK), Tumor Site: Type of Lesion: LUNG: ADENOCARCINOMA, HEMATOPOIETIC SYSTEM: LEUKEMIA) did it give?
A: The carcinogen call was “active; positive”.

Q: What about the carcinogen call (Species: HAMSTER, Strain/Sex: SYRIAN/MALE, Route: INTRAPERITONEAL, Dose: 0, 0.5 MG IN 0.2 ML OF SALINE 1/WK FOR 26 WK (STUDY DURATION: 48 WK), Tumor Site: Type of Lesion: LUNG: ADENOCARCINOMA, HEMATOPOIETIC SYSTEM: LEUKEMIA) of the same compound?
A: The carcinogen call was “active; positive”.

Q: And the carcinogen call (Species: MOUSE, Strain/Sex: BALB/MALE, Route: SUBCUTANEOUS, Dose: 0, 0.1 MG IN DMSO 1/WK FOR 20 WK (STUDY DURATION: 60 WK), Tumor Site: Type of Lesion: INJECTION SITE: TUMOR)?
A: The carcinogen call was “active; positive”.

Q: What about the carcinogen call (Species: RAT, Strain/Sex: F344/MALE, Route: SUBCUTANEOUS, Dose: 0, 0.2 MG 2/WK FOR 10 WK (STUDY DURATION: 320 D), Tumor Site: Type of Lesion: INJECTION SITE: SARCOMA) of the same compound?
A: Its carcinogen call is “active; positive”.

Q: What about the carcinogen call (Species: RAT, Strain/Sex: F344/NS1C/MALE, Route: PULMONARY IMPLANT, Dose: 0, 0.003, 0.01, 0.03, 0.1, 0.15 MG AS A SUSPENSION IN EQUAL VOL OF BEESWAX AND TRICAPRYLIN IMPLANTED IN LEFT LUNG (STUDY, Dose: 0, 0.003, 0.01, 0.03, 0.1, 0.15 MG AS A SUSPENSION IN EQUAL VOL OF BEESWAX AND TRICAPRYLIN IMPLANTED IN LEFT LUNG (STUDY, Tumor Site: Type of Lesion: LUNG: TUMOR) of the same compound?
A: The carcinogen call was “active; positive”.

Q: And the carcinogen call (Species: RAT, Strain/Sex: STRAIN CD/FEMALE, Route: INTRAGASTRIC, Dose: 0, 10 UMOL IN DMSO 3/WK FOR 4 WK (TOTAL DOSE: 16 UMOL/RAT) (STUDY DURATION: 78 WK), Tumor Site: Type of Lesion: PITUITARY GLAND: CARCINOMA)?
A: Its carcinogen call is “active; positive”.

Q: What about the carcinogen call (Species: RAT, Strain/Sex: STRAIN CD/FEMALE, Route: INTRAPERITONEAL, Dose: 0, 10 UMOL IN DMSO 3/WK FOR 4 WK (TOTAL DOSE; 16 UMOL/RAT) (STUDY DURATION; 78 WK), Dose: 0, 10 UMOL IN DMSO 3/WK FOR 4 WK (TOTAL DOSE; 16 UMOL/RAT) (STUDY DURATION; 78 WK), Tumor Site: Type of Lesion: HEMATOPOIETIC SYSTEM: HISTIOCYTOMA) of the same compound?
A: Its carcinogen call is “active; positive”.

Q: What about the carcinogen call (Species: RAT, Strain/Sex: STRAIN-CD/FEMALE, Route: SUBCUTANEOUS, Dose: 0, 6.3 UMOL (TOTAL DOSE) ADMINISTERED OVER 8 WK BEGINNING ON DAY OF BIRTH (STUDY DURATION: 67 WK), Tumor Site: Type of Lesion: INTEGUMENTARY SYSTEM: MALIGNANT FIBROUS HISTIOCYTOMA, HEMATOPOIETIC SYSTEM: LEUKEMIA) of the same compound?
A: The carcinogen call was “active; positive”.

Q: With `Nc1nc(N)nc(N)n1` as the compound, how does the carcinogen call (Species: MOUSE, Strain/Sex: B6C3F1/FEMALE, Route: ORAL, Dose: 0, 2250, 4500 PPM IN DIET FOR 103 WK, Dose: 0, 2250, 4500 PPM IN DIET FOR 103 WK) read?
A: Its carcinogen call is “inactive; negative”.

Q: What about the carcinogen call (Species: MOUSE, Strain/Sex: B6C3F1/MALE, Route: ORAL, Dose: 0, 2250, 4500 PPM IN DIET FOR 103 WK, Dose: 0, 2250, 4500 PPM IN DIET FOR 103 WK) of the same compound?
A: Its carcinogen call is “inactive; negative”.

Q: And the carcinogen call (Species: RAT, Strain/Sex: F344/FEMALE, Route: ORAL, Dose: 0, 4500, 9000 PPM IN DIET FOR 103 WK, Dose: 0, 4500, 9000 PPM IN DIET FOR 103 WK)?
A: Its carcinogen call is “inactive; negative”.

Q: What about the carcinogen call (Species: RAT, Strain/Sex: F344/MALE, Route: ORAL, Dose: 0, 0.3, 1, 3% IN DIET FOR 36 WK (STUDY DURATION: 40 WK), Dose: 0, 0.3, 1, 3% IN DIET FOR 36 WK (STUDY DURATION: 40 WK), Tumor Site: Type of Lesion: BLADDER: PAPILLOMA, CARCINOMA) of the same compound?
A: Its carcinogen call is “active; positive”.

Q: And the carcinogen call (Species: RAT, Strain/Sex: F344/MALE, Route: ORAL, Dose: 0, 1, 3% IN DIET CONTAINING 5% SODIUM CHLORIDE FOR 36 WK (STUDY DURATION: 40 WK), Dose: 0, 1, 3% IN DIET CONTAINING 5% SODIUM CHLORIDE FOR 36 WK (STUDY DURATION: 40 WK), Tumor Site: Type of Lesion: URAINARY BLADDER: PAPILLOMA, CARCINOMA)?
A: The carcinogen call was “active; positive”.

Q: What about the carcinogen call (Species: RAT, Strain/Sex: F344/MALE, Route: ORAL, Dose: 0, 1, 3% IN DIET CONTAINING 10% SODIUM CHLORIDE FOR 36 WK (STUDY DURATION: 40 WK), Dose: 0, 1, 3% IN DIET CONTAINING 10% SODIUM CHLORIDE FOR 36 WK (STUDY DURATION: 40 WK)) of the same compound?
A: Its carcinogen call is “inactive; negative”.

Q: And the carcinogen call (Species: RAT, Strain/Sex: F344/MALE, Route: ORAL, Dose: 0, 1, 3% IN DIET FOR 36 WK (STUDY DURATION: 40 WK), Dose: 0, 1, 3% IN DIET FOR 36 WK (STUDY DURATION: 40 WK), Tumor Site: Type of Lesion: URINARY BLADDER: PAPILLOMA, CARCINOMA)?
A: Its carcinogen call is “active; positive”.

Q: What about the carcinogen call (Species: RAT, Strain/Sex: F344/MALE, Route: ORAL, Dose: 0, 2250, 4500 PPM IN DIET FOR 103 WK, Dose: 0, 2250, 4500 PPM IN DIET FOR 103 WK, Tumor Site: Type of Lesion: URINARY BLADDER: TRANSITIONAL CELL PAPILLOMA OR CARCINOMA) of the same compound?
A: The carcinogen call was “active; positive”.

Q: What does the source list for `C=CN(C)N=O`?
A: carcinogen call (Species: RAT, Route: INHALATION, Tumor Site: Type of Lesion: NASAL CAVITY): active; positive; carcinogen call (Species: RAT, Route: ORAL, Tumor Site: Type of Lesion: ESOPHAGUS): active; positive

Q: How did the carcinogen call (Species: MOUSE, Strain/Sex: B6C3F1/FEMALE, Route: ORAL, Dose: 0, 25000, 50000 PPM IN DIET, Dose: 0, 25000, 50000 PPM IN DIET) turn out when `S=C(NC1CCCCC1)NC1CCCCC1` was run?
A: The carcinogen call was “inactive; negative”.

Q: What about the carcinogen call (Species: MOUSE, Strain/Sex: B6C3F1/MALE, Route: ORAL, Dose: 0, 25000, 50000 PPM IN DIET, Dose: 0, 25000, 50000 PPM IN DIET) of the same compound?
A: Its carcinogen call is “inactive; negative”.

Q: And the carcinogen call (Species: RAT, Strain/Sex: F344/FEMALE, Route: ORAL, Dose: 0, 25000, 50000 PPM IN DIET, Dose: 0, 25000, 50000 PPM IN DIET)?
A: The carcinogen call was “inactive; negative”.

Q: What about the carcinogen call (Species: RAT, Strain/Sex: F344/MALE, Route: ORAL, Dose: 0, 25000, 50000 PPM IN DIET, Dose: 0, 25000, 50000 PPM IN DIET) of the same compound?
A: Its carcinogen call is “inactive; negative”.

Q: With `FC(F)(F)CCl` as the compound, how does the carcinogen call (Species: RAT, Strain/Sex: WISTAR/FEMALE, Route: GAVAGE, Dose: 300 MG/KG IN CORN OIL 5/WK FOR 52 WK, Tumor Site: Type of Lesion: UTERUS: ADENOCARCINOMA) read?
A: The carcinogen call was “active; positive”.

Q: What about the carcinogen call (Species: RAT, Strain/Sex: WISTAR/MALE, Route: GAVAGE, Dose: 300 MG/KG IN CORN OIL 5/WK FOR 52 WK, Tumor Site: Type of Lesion: TESTES: INTERSTITIAL CELL TUMOR) of the same compound?
A: The carcinogen call was “active; positive”.

Q: Which carcinogen call (Species: RAT, Strain/Sex: SPRAGUE-DAWLEY/FEMALE, Route: GAVAGE, Dose: 0, 20, 80, 160 MG/KG 1/D FOR 1 YR (STUDY DURATION: 1 YR), Dose: 0, 20, 80, 160 MG/KG 1/D FOR 1 YR (STUDY DURATION: 1 YR)) does the source give for `CCN(CC)CCCNC(=O)Cn1ncc(-c2ccccc2)c1-c1ccccc1` here?
A: Its carcinogen call is “inactive; negative”.

Q: And the carcinogen call (Species: RAT, Strain/Sex: SPRAGUE-DAWLEY/MALE, Route: GAVAGE, Dose: 0, 20, 80, 160 MG/KG 1/D FOR 1 YR (STUDY DURATION: 1 YR), Dose: 0, 20, 80, 160 MG/KG 1/D FOR 1 YR (STUDY DURATION: 1 YR))?
A: Its carcinogen call is “inactive; negative”.

Q: `Cc1ccc2ncccc2c1` was tested. Which carcinogen call (Species: RAT, Strain/Sex: F344/MALE,FEMALE, Route: ORAL, Dose: 0.05% IN DIET FOR 2 YR) did it give?
A: Its carcinogen call is “inactive; negative”.

Q: Which carcinogen call (Species: MOUSE, Strain/Sex: STRAIN-A/FEMALE, Route: INTRAPERITONEAL, Dose: 0, 10 UMOL IN 0.1 ML OLIVE OIL 3/WK FOR 20 DOSES (TOTAL DOSE: 200 UMOL) (STUDY DURATION: 27 WK)) does the source give for `C=Cc1ccccn1` here?
A: The carcinogen call was “inactive; negative”.
